Data taken from patent US9867826B2, “Heterocycles as modulators of kinase activity” (Merck Patent GmbH, priority 2013, dated 2018).

Experiments:
[1] = target: His-AKT (Full Length) (Homo sapiens (Human), UniProt P31749); test: AKT enzyme assay; format: biochemical; conditions: 160 uM ATP
Description: A TTP Mosquito liquid handling instrument was used to place 125 nl of the appropriate concentration of inhibitor in 100% DMSO (for a dose response curve calculation) into each well of a 384-well plate. To this reaction components were added to a final volume of 12.5 μl: • 0.1 ng/μl His-AKT (Full Length), (Invitrogen, Part # P2999, Lot #641228C). • 160 uM ATP (Fluka, 02055) • 1 mM DTT (Sigma, D0632) • 1 mM MgCl2 (Sigma, M1028) • 1 μM substrate peptide (sequence FITC-AHA-GRPRTSSFAEG-NH2), synthesized by Tufts Peptide Synthesis service. • 100 mM HEPES pH 7.5 (Calbiochem, 391338) • 0.015% Brij-35 (Sigma, B4184)
The reaction was incubated for 90 min at 25 C., and then stopped by the addition of 70 μl of Stop buffer (100 mM HEPES pH 7.5, 0.015% Brij-35, 10 mM EDTA (Sigma, E7889)).
The plate was read on a Caliper LC 3000 in an Off-Chip mobility shift assay format, using the following parameters for a 12-sipper chip: screening pressure −2.3 psi, upstream voltage −500, and downstream voltage −3000. These conditions caused unphosphorylated substrate and phosphorylated product peptide to resolve as separate peaks allowing direct measurement of percentage of conversion of substrate to product.
The percent conversion was plotted against concentration of inhibitor to produce a sigmoidal dose response curve, from which an IC50 was calculated.

[2] = target: P70S6K (T412E mutant) (Homo sapiens (Human), UniProt P23443, T412E); test: P70S6K enzyme assay; format: biochemical; conditions: 24 μM ATP
Chain of P70S6K (T412E mutant) (P23443 whole entry T412E): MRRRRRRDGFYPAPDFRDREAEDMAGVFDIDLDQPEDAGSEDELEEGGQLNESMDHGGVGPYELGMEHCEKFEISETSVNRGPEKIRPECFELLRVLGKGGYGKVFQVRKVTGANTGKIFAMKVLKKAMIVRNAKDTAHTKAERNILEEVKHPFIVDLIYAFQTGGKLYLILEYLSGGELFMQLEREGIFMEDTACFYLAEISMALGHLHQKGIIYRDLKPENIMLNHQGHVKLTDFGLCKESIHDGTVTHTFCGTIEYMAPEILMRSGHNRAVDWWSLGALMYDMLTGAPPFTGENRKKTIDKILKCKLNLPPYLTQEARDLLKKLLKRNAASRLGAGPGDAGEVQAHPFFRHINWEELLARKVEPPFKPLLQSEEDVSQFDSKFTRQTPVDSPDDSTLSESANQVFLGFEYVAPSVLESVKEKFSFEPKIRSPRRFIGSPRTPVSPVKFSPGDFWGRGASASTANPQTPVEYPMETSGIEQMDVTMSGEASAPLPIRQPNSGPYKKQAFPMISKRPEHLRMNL
Description: P70S6K inhibitor compounds were diluted and plated in 96 well plates. A reaction mixture including the following components was then added to the compound plate to initiate the enzyme reaction; P70S6K (3 nM, T412E mutant, Millipore) was mixed with 24 μM ATP in an assay buffer containing 100 mM Hepes (pH 7.5), 5 mM MgCl2, 1 mM DTT, 0.015% Brij and 1 μM of the substrate peptide FITC-AHA-AKRRRLSSLRA-OH (derived from the S6 ribosomal protein sequence, FITC=fluorescein isothiocyanate, AHA=6-aminohexanoic acid). The reaction was incubated for 90 min at 25° C., before the addition of 10 mM EDTA to stop the reaction. The proportion of substrate and product (phosphorylated) peptide was analysed on a Caliper Life Sciences Lab Chip 3000, using a pressure of −1.4 psi, and upstream and downstream voltages of −3000 and −700 respectively. Product peaks were resolved before substrate peaks on the resulting chromatograms.

Chain of His-AKT (Full Length) (P31749 whole entry): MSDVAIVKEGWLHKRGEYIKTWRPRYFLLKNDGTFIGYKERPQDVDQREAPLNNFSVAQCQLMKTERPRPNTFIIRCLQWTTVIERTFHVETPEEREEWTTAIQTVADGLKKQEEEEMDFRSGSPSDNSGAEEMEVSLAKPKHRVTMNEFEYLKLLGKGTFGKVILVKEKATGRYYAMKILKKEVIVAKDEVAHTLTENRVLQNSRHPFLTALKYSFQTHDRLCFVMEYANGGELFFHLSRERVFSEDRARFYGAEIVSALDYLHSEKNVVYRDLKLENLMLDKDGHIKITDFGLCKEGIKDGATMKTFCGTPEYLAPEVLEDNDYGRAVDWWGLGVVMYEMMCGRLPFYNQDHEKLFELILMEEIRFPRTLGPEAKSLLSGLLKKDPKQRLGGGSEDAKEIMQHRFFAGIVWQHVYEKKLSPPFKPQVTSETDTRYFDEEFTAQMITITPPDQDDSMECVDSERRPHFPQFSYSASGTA

Compound	IC50 [1] [µM]	IC50 [2] [µM]
N#Cc1c(N)ncnc1N1CC[C@@H](c2nc(-c3ccc(F)c(C(F)(F)F)c3)cn2CCN2CCC2)[C@@H](F)C1 (racemic) [Compound 1, 4-Amino-6-{3,4-cis-4-[1-(2-azetidin-1-yl-ethyl)-4-(4-fluoro-3-trifluoromethyl-phenyl)-1H-imidazol-2-yl]-3-fluoro-piperidin-1-yl}-pyrimidine-5-carbonitrile]	< 0.001	< 0.001
NC(=O)c1c(N)ncnc1N1CC[C@@H](c2nc(-c3ccc(F)c(C(F)(F)F)c3)cn2CCN2CCC2)[C@@H](F)C1 (racemic) [Compound 2, 4-Amino-6-{3,4-cis-4-{1-(2-azetidin-1-yl-ethyl)-4-(4-fluoro-3-trifluoromethyl-phenyl)-1H-imidazol-2-yl}-3-fluoro-piperidin-1-yl}-pyrimidine-5-carboxamide]	< 0.001	< 0.001
C[C@H]1CN(c2ncnc(N)c2C#N)CC[C@H]1c1nc(-c2ccc(F)c(C(F)(F)F)c2)cn1CCN1CCC1 (racemic) [Compound 5, 4-Amino-6-{3,4-cis-4-[1-(2-azetidin-1-yl-ethyl)-4-(4-fluoro-3-trifluoromethyl-phenyl)-1H-imidazol-2-yl]-3-methyl-piperidin-1-yl}-pyrimidine-5-carbonitrile]	> 0.01	0.001 to 0.01
C[C@H]1CN(c2ncnc(N)c2C(N)=O)CC[C@H]1c1nc(-c2ccc(F)c(C(F)(F)F)c2)cn1CCN1CCC1 (racemic) [Compound 6, 4-Amino-6-{3,4-cis-4-[1-(2-azetidin-1-yl-ethyl)-4-(4-fluoro-3-trifluoromethyl-phenyl)-1H-imidazol-2-yl]-3-methyl-piperidin-1-yl}-pyrimidine-5-carboxamide]	> 0.01	> 0.01
N#Cc1c(N)ncnc1N1CC[C@H](c2nc(-c3ccc(F)c(C(F)(F)F)c3)cn2CCN2CCC2)[C@@H](F)C1 (racemic) [Compound 7, 4-amino-6-{3,4-trans-4-[1-(2-azetidin-1-yl-ethyl)-4-(4-fluoro-3-trifluoromethyl-phenyl)-1H-imidazol-2-yl]-3-fluoro-piperidin-1-yl}-pyrimidine-5-carbonitrile]	> 0.01	0.001 to 0.01
NC(=O)c1c(N)ncnc1N1CC[C@@H](c2nc(-c3ccc(F)c(C(F)(F)F)c3)cn2CCN2CCC2)[C@H](F)C1 (racemic) [Compound 8, 4-Amino-6-{3,4-trans-4-[1-(2-azetidin-1-yl-ethyl)-4-(4-fluoro-3-trifluoromethyl-phenyl)-1H-imidazol-2-yl]-3-fluoro-piperidin-1-yl}-pyrimidine-5-carboxamide]	> 0.01	0.001 to 0.01
Cc1cc(-c2cn(CCN(C)C)c([C@@H]3CCN(c4ncnc(N)c4C#N)C[C@@H]3F)n2)ccc1F (racemic) [Compound 9]	0.001 to 0.01	0.001 to 0.01
Nc1ncnc(N2CC[C@@H](c3nc(-c4ccc(F)c(C(F)(F)F)c4)cn3CCN3CCC3)[C@@H](F)C2)c1Cl (racemic) [Compound 10, 6-{3,4-cis-4-[1-(2-Azetidin-1-yl-ethyl)-4-(4-fluoro-3-trifluoromethyl-phenyl)-1H-imidazol-2-yl]-3-fluoro-piperidin-1-yl}-5-chloro-pyrimidin-4-ylamine]	< 0.001	< 0.001
Nc1ncnc(N2CC[C@@H](c3nc(-c4ccc(F)c(C(F)(F)F)c4)cn3CCN3CCC3)[C@H](F)C2)c1Cl (racemic) [Compound 11, 6-{3,4-trans-4-[1-(2-Azetidin-1-yl-ethyl)-4-(4-fluoro-3-trifluoromethyl-phenyl)-1H-imidazol-2-yl]-3-fluoro-piperidin-1-yl}-5-chloro-pyrimidin-4-ylamine]	0.001 to 0.01	0.001 to 0.01
Cc1cc(-c2cn(CCN(C)C)c([C@H]3CCN(c4ncnc(N)c4Cl)C[C@H]3F)n2)ccc1F (racemic) [Compound 12, 5-chloro-6-{3,4-cis-4-[1-(2-dimethylamino-ethyl)-4-(4-fluoro-3-methyl-phenyl)-1H-imidazol-2-yl]-3-fluoro-piperidin-1-yl}-pyrimidin-4-ylamine]	0.001 to 0.01	0.001 to 0.01
CCc1c(N)ncnc1N1CC[C@@H](c2nc(-c3ccc(F)c(C(F)(F)F)c3)cn2CCN2CCC2)[C@@H](F)C1 (racemic) [Compound 13, 6-{3,4-cis-4-[1-(2-Azetidin-1-yl-ethyl)-4-(4-fluoro-3-trifluoromethyl-phenyl)-1H-imidazol-2-yl]-3-fluoro-piperidin-1-yl}-5-ethyl-pyrimidin-4-ylamine]	0.001 to 0.01	0.001 to 0.01
CN(C)CCn1cc(-c2ccc(F)c(C(F)(F)F)c2)nc1[C@@H]1CCN(c2ncnc(N)c2C#N)C[C@@H]1F (racemic) [Compound 14, 4-Amino-6-{3,4-cis-4-[1-(2-dimethylamino-ethyl)-4-(4-fluoro-3-trifluoromethyl-phenyl)-1H-imidazol-2-yl]-3-fluoro-piperidin-1-yl}-pyrimidine-5-carbonitrile]	0.001 to 0.01	0.001 to 0.01
CN(C)CCn1cc(-c2ccc(F)c(C(F)(F)F)c2)nc1[C@@H]1CCN(c2ncnc(N)c2C(N)=O)C[C@@H]1F (racemic) [Compound 15]	> 0.01	0.001 to 0.01
CCOc1c(N)ncnc1N1CC[C@@H](c2nc(-c3ccc(F)c(C(F)(F)F)c3)cn2CCN2CCC2)[C@@H](F)C1 (racemic) [Compound 16, 6-{3,4-cis-4-[1-(2-Azetidin-1-yl-ethyl)-4-(4-fluoro-3-trifluoromethyl-phenyl)-1H-imidazol-2-yl]-3-fluoro-piperidin-1-yl}-5-ethoxy-pyrimidin-4-ylamine]	0.001 to 0.01	0.001 to 0.01
CC(C)c1c(N)ncnc1N1CC[C@@H](c2nc(-c3ccc(F)c(C(F)(F)F)c3)cn2CCN(C)C)[C@@H](F)C1 (racemic) [Compound 17, 6-{cis-4-[1-(2-Dimethylamino-ethyl)-4-(4-fluoro-3-trifluoromethyl-phenyl)-1H-imidazol-2-yl]-3-fluoro-piperidin-1-yl}-5-isopropyl-pyrimidin-4-ylamine]	> 0.01	0.001 to 0.01
Cc1cc(-c2cn(CCN3CCC3)c([C@@H]3CCN(c4ncnc(N)c4C#N)C[C@@H]3F)n2)ccc1F (racemic) [Compound 18, 4-Amino-6-{cis-4-[1-(2-azetidin-1-yl-ethyl)-4-(4-fluoro-3-methyl-phenyl)-1H-imidazol-2-yl]-3-fluoro-piperidin-1-yl}-pyrimidine-5-carbonitrile]	0.001 to 0.01	0.001 to 0.01
Cc1cc(-c2cn(CCN3CCC3)c([C@@H]3CCN(c4ncnc(N)c4C(C)C)C[C@@H]3F)n2)ccc1F (racemic) [Compound 24, 6-{cis-4-[1-(2-Azetidin-1-yl-ethyl)-4-(4-fluoro-3-methyl-phenyl)-1H-imidazol-2-yl]-3-fluoro-piperidin-1-yl}-5-isopropyl-pyrimidin-4-ylamine]	0.001 to 0.01	0.001 to 0.01
CN(C)CCn1cc(-c2ccc(F)c(C(F)(F)F)c2)nc1[C@@H]1CCN(c2ncnc(N)c2Cl)C[C@@H]1F (racemic) [Compound 25]	0.001 to 0.01	0.001 to 0.01
CC(C)c1c(N)ncnc1N1CC[C@@H](c2nc(-c3ccc(F)c(C(F)(F)F)c3)c[nH]2)[C@@H](F)C1 (racemic) [Compound 26, 6-{cis-3-Fluoro-4-[4-(4-fluoro-3-trifluoromethyl-phenyl)-1H-imidazol-2-yl]-piperidin-1-yl}-5-isopropyl-pyrimidin-4-ylamine]	> 0.01	0.001 to 0.01
CC(C)c1c(N)ncnc1N1CC[C@@H](c2nc(-c3ccc(F)c(C(F)(F)F)c3)cn2CCN)[C@@H](F)C1 (racemic) [Compound 33, 6-{cis-4-[1-(2-Amino-ethyl)-4-(4-fluoro-3-trifluoromethyl-phenyl)-1H-imidazol-2-yl]-3-fluoro-piperidin-1-yl}-5-isopropyl-pyrimidin-4-ylamine]	0.001 to 0.01	0.001 to 0.01
NCCn1cc(-c2ccc(F)c(C(F)(F)F)c2)nc1[C@@H]1CCN(c2ncnc(N)c2Cl)C[C@@H]1F (racemic) [Compound 36]	0.001 to 0.01	0.001 to 0.01
Cc1cc(-c2cn(CCNC(C)C)c([C@@H]3CCN(c4ncnc(N)c4C(C)C)C[C@@H]3F)n2)ccc1F (racemic) [Compound 37, 6-{cis-3-Fluoro-4-[4-(4-fluoro-3-methyl-phenyl)-1-(2-isopropylamino-ethyl)-1H-imidazol-2-yl]-piperidin-1-yl}-5-isopropyl-pyrimidin-4-ylamine]	0.001 to 0.01	0.001 to 0.01
